Measured values published in patent US11484032B2, “Compositions for inhibition of insect sensing” (Vanderbilt University, priority 2011, dated 2022).

What was measured:
[1] = tested on: HvOR2; test: Whole-cell patch clamp, HEK cells transiently expressing HvOR2; type: cell-based, Heliothis virescens; conditions: HvOR2 transiently transfected HEK cells
Text: For transient transfections, ORs were cloned into pCl (Promega) and transfected into Flp-In™ T-REx™293 cell lines (Invitrogen) with Fu GENE6 (Roche). For the creation of stable cell lines, a cell culture expression vector capable of expressing Orco in conjunction with a conventional OR, pcDNA5/FRT/TO (Invitrogen) was modified to create two individual expression cassettes each under the control of a separate CMV/Tet02 promoter and a BGH poly-adenylation signal. Cells (as above) were transfected with the modified pcDNA5 plasmid along with POG44 (a Flp recombinase expression plasmid) to facilitate site-specific recombination. Stable cell lines were selected using Hygromycin B (Invitrogen). Cells were maintained in DMEM (Invitrogen) supplemented with 10% Tetracycline-free FBS (HyClone) and 15 ng/ml Blasticidin. […] Baseline readings were taken for 20 s before automated addition of compound previously diluted in DMSO and assay buffer. […]
Currents from OR-expressing HEK293 cells were amplified with an Axopatch 200b Amplifier (Axon Instruments) and digitized through a Digidata 1322A (Axon Instruments). Electrophysiological data was recorded and analyzed using pCLAMP 10 (Axon Instruments). […]

[2] = target: T1, AgORco (Anopheles gambiae, UniProt Q7QCC7); test: Whole-cell patch clamp, HEK293 cells stably expressing AgORco alone; type: cell-based
T1 construct: expressed in transfected cells
T1 sequence (Q7QCC7 1-478): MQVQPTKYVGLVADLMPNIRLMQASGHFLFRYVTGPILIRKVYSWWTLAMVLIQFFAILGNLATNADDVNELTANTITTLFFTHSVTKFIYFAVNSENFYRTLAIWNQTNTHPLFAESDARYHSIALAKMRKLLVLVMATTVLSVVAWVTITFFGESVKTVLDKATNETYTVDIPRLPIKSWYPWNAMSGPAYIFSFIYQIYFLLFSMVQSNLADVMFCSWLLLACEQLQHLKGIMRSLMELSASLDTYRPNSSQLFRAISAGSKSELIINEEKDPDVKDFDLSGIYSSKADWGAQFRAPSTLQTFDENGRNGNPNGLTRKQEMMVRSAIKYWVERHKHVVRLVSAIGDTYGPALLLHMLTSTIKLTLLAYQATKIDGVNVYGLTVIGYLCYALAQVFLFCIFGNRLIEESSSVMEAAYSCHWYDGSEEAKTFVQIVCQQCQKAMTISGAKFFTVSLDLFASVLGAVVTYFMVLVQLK
Description: Currents from OR-expressing HEK293 cells were amplified with an Axopatch 200b Amplifier (Axon Instruments) and digitized through a Digidata 1322A (Axon Instruments). Electrophysiological data was recorded and analyzed using pCLAMP 10 (Axon Instruments). Electrodes were fabricated from quartz tubing (Sutter Instruments) and pulled to 4-6 MiΩ for whole cell recording. Electrodes were filled with internal solution (120 mM KCl, 30 mM D-glucose, 10 mM HEPES, 2 mM MgCl2, 1.1 mM EGTA, and 0.1 CaCl2) (pH 7.35, 280 mOsm). External (bath) solution contained 130 mM NaCl, 34 mM D-glucose, 10 mM HEPES, 1.5 mM CaCl2), 1.3 mM KH2PO4, and 0.5 MgSO4 (pH 7.35, 300 mOsm). Compounds were diluted in external solution and locally perfused to the recording cell using Perfusion Pencil (Automate Scientific) and controlled by a ValveLink 8.2 controller (Automate Scientific). Whole cell recordings were sampled at 10 kHz and filtered at 5 kHz. Outside-out patches were obtained using 10-15MΩ electrodes pulled from standard glass capillaries (World Precision Instruments) and fire-polished with an MF-830 micro forge (Narishige). Single channel recordings were sampled at 20 kHz. Recordings were reduced to 1 kHz and low-pass filtered at 500 Hz for display and analysis using QuB (SUNY at Buffalo).
To test the hypothesis that VUAA1 directly agonized AgORco, whole-cell patch clamp responses were examined in AgORco+AgOR10 expressing cells as well as HEK293 cells stably expressing AgORco alone. […] The VUAA1-dependent currents in AgORco+AgOR10 cells resembled those resulting from application of benzaldehyde, an orthosteric agonist of AgOR10 (FIG. 3C) (Wang, 2010; Carey, 2010). […] To investigate the specificity of VUAA1 agonism, the inventors transiently transfected HEK cells with the AgORco orthologs of Drosophila melanogaster and Heliothis virescens, DmORco and HvOR2 respectively.

In the case of CCc1ccc(NC(=O)CSc2nnc(-c3cccnc3)n2CC)cc1 [VUAA1, 2-((4-ethyl-5-(pyridin-3-yl)-4H-1,2,4-triazol-3-yl)thio)-N-(4-ethylphenyl)acetamide], the whole-cell current response [1] is reported as “robust inward currents”, the whole-cell current response ([2]; AgORco alone cells, holding potential −60 mV) is reported as “concentration-dependent inward currents” and the “reversal potential of agonist-induced current” value ([2]; AgORco alone, mean s.e.m.) is reported as “+0.4±1.1 mV”. The “whole-cell current response at −5.0 log M” value ([2]; −5.0 log M) was “no response”.
